Like-named read-outs stand apart in the source and are kept apart here.
Assays:
[1] = target: T1, h-GABA-A α5β3γ2 (Homo sapiens (Human), UniProt P18507+P31644); assay: Two-electrode voltage clamp electrophysiology in Xenopus oocytes expressing GABAA receptors, modulation of GABA EC20 current; format: cell-based
Procedure, shortened: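 Values are % modulation of an EC20 GABA response, derived point by point from the ratio of compound-exposed versus control current traces (extremum taken, 100×(fold−1)). Recordings used oocytes injected with human α5, β3, γ2 mRNA, clamped at −80 mV at room temperature, at least 3 oocytes each.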

[2] = target: T1, h-GABA-A α5β3γ2; assay: [3H]flumazenil competition binding assay, membranes of HEK293 cells expressing human GABAA receptors
Procedure, shortened: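 Membranes were prepared from HEK293 cells with transient human α5β3γ2 expression and assayed in Krebs-tris, pH 7.5. Bound radioactivity measured on filters by liquid scintillation.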

[3] = % modulation of GABA EC20 = 100*(Fold increase−1), Xenopus oocytes
[4] = Xenopus oocytes, GABA EC20, test compound at approx. 30 fold its Ki
[5] = displacement of [3H]flumazenil 0.5 nM, HEK293 cells expressing human receptors, mean of two determinations, read-out: Ki h-GABA-A α5β3γ2

Compound | Efficacy (GABA) % [1, 3] | Fold increase h-GABA-A α5β3γ2 oocyte [1, 4] | Ki [2, 5] | Efficacy (GABA) % ([1]; reference compounds, % modulation of GABA EC20) | Fold increase h-GABA-A α5β3γ2 oocyte ([1]; reference compounds, GABAA α5β3γ2 overexpressing oocytes, GABA EC20) | Ki ([2]; reference compounds, GABAA receptor α5β3γ2, read-out: Ki α5-human)
Cc1ccc(-c2noc(C)c2COc2ccc(C(=O)NC3CC(F)(F)C3)nn2)cn1 [Example 42, N-(3,3-difluorocyclobutyl)-6-((5-methyl-3-(6-methylpyridin-3-yl)isoxazol-4-yl)methoxy)pyridazine-3-carboxamide] | 81% | 1.81 | 0.0089 µM |  |  | 
Cc1ccc(-c2noc(C)c2COc2ccc(C(=O)NC3CCS(=O)(=O)C3)cn2)cn1 (stereo not drawn) [Example 16, N-(1,1-dioxothiolan-3-yl)-6-((5-methyl-3-(6-methyl-3-pyridyl)isoxazol-4-yl)methoxy)pyridine-3-carboxamide] | 85% | 1.85 | 0.0192 µM |  |  | 
Cc1ccc(-c2noc(C)c2COc2ccc(C(=O)NC(C)(CO)CO)nn2)cn1 [Example 147, N-(1,3-dihydroxy-2-methylpropan-2-yl)-6-((5-methyl-3-(6-methylpyridin-3-yl)isoxazol-4-yl)methoxy)pyridazine-3-carboxamide] | 48% | 1.48 | 0.0096 µM |  |  | 
Cc1ccc(-c2noc(C)c2COc2ccc(C(=O)N[C@H]3CCS(=O)(=O)C3)cn2)cn1 [Example 19, N-((3S)-1,1-dioxothiolan-3-yl)-6-((5-methyl-3-(6-methylpyridin-3-yl)-1,2-oxazol-4-yl)methoxy)pyridine-3-carboxamide] | 77% | 1.77 | 0.0052 µM |  |  | 
CCNC(=O)c1ccc(OCc2c(-c3ccc(C)nc3)noc2C)nc1 [Example 3, N-ethyl-6-((5-methyl-3-(6-methyl-3-pyridyl)isoxazol-4-yl)methoxy)pyridine-3-carboxamide] | 41% | 1.41 | 0.0014 µM |  |  | 
Cc1ccc(-c2noc(C)c2COc2ccc(C(=O)NC3CCS(=O)(=O)CC3)cn2)cn1 [Example 21, N-(1,1-dioxothian-4-yl)-6-((5-methyl-3-(6-methylpyridin-3-yl)-1,2-oxazol-4-yl)methoxy)pyridine-3-carboxamide] | 119% | 2.19 | 0.0054 µM |  |  | 
CCc1onc(-c2ccc(C)nc2)c1COc1ccc(C(=O)NC2(C)COC2)nn1 [Example 122, 6-((5-ethyl-3-(6-methylpyridin-3-yl)isoxazol-4-yl)methoxy)-N-(3-methyloxetan-3-yl)pyridazine-3-carboxamide] | 126% | 2.26 | 0.0264 µM |  |  | 
CCC[C@@H](CO)NC(=O)c1cnc(OCc2c(-c3ccc(C)nc3)noc2C)cn1 [Example 14, N-((1S)-1-(hydroxymethyl)butyl)-5-((5-methyl-3-(6-methyl-3-pyridyl)isoxazol-4-yl)methoxy)pyrazine-2-carboxamide] | 160% | 2.6 | 0.0745 µM |  |  | 
Cc1ccc(-c2noc(C)c2COc2cc3c(cn2)C(=O)N(CC(C)C)C3)cn1 [Example 9, 2-isobutyl-6-((5-methyl-3-(6-methylpyridin-3-yl)isoxazol-4-yl)methoxy)-1H-pyrrolo[3,4-c]pyridin-3(2H)-one] | 62% | 1.62 | 0.0137 µM |  |  | 
Cc1ccc(-c2noc(C)c2COc2ccc(C(=O)N[C@H]3CC[C@](O)(C(F)(F)F)C3)nn2)cn1 (single isomer, unassigned) [Example 150] | 69% | 1.69 | 0.0167 µM |  |  | 
Cc1ccc(-c2noc(C3CC3)c2COc2ccc(C(=O)N[C@H]3CCOC3)nn2)cn1 [Example 182] | 141% | 2.41 | 0.0596 µM |  |  | 
CCNC(=O)c1ccc(OCc2c(-c3ccc(C)nc3)noc2C)nn1 [Example 37, N-ethyl-6-((5-methyl-3-(6-methylpyridin-3-yl)isoxazol-4-yl)methoxy)pyridazine-3-carboxamide] | 73% | 1.73 | 0.0076 µM |  |  | 
Cc1ccc(-c2noc(C)c2COc2ccc(C(=O)N[C@H]3C[C@H](OC(F)F)C3)nn2)cn1 [Example 174, trans-N-(3-(difluoromethoxy)cyclobutyl)-6-((5-methyl-3-(6-methylpyridin-3-yl)isoxazol-4-yl)methoxy)pyridazine-3-carboxamide] | 55% | 1.55 | 0.0088 µM |  |  | 
Cc1ccc(-c2noc(C)c2COc2cnc(C(=O)N[C@H]3CC[C@@](C)(O)CC3)cn2)cn1 [Example 104, N-(cis-4-hydroxy-4-methylcyclohexyl)-5-((5-methyl-3-(6-methylpyridin-3-yl)isoxazol-4-yl)methoxy)pyrazine-2-carboxamide] | 43% | 1.43 | 0.0663 µM |  |  | 
Cc1ccc(-c2noc(C)c2COc2ccc(C(=O)NC(C)(C)CO)nn2)cn1 [Example 32] | 79% | 1.79 | 0.0085 µM |  |  | 
Cc1ccc(-c2noc(C)c2COc2ccc(C(=O)N[C@H]3CCOC3)nn2)cn1 [Example 87, (S)-6-((5-methyl-3-(6-methylpyridin-3-yl)isoxazol-4-yl)methoxy)-N-(tetrahydrofuran-3-yl)pyridazine-3-carboxamide] | 80% | 1.8 | 0.0081 µM |  |  | 
Cc1ccc(-c2noc(C)c2COc2cnc(C(=O)NC3CC3)cn2)cn1 [Example 74, N-cyclopropyl-5-((5-methyl-3-(6-methyl-3-pyridyl)isoxazol-4-yl)methoxy)pyrazine-2-carboxamide] | 28% | 1.28 | 0.0092 µM |  |  | 
Cc1ccc(-c2noc(C)c2COc2ccc(C(=O)N3CCOCC3)nn2)cn1 [Example 60, (6-((5-methyl-3-(6-methylpyridin-3-yl)isoxazol-4-yl)methoxy)pyridazin-3-yl)(morpholino)methanone] | 99% | 1.99 | 0.0934 µM |  |  | 
Cc1ccc(-c2noc(C)c2COc2ccc(C(=O)N[C@@H]3CCS(=O)(=O)C3)cn2)cn1 [Example 20, N-((3R)-1,1-dioxothiolan-3-yl)-6-((5-methyl-3-(6-methylpyridin-3-yl)-1,2-oxazol-4-yl)methoxy)pyridine-3-carboxamide] | 95% | 1.95 | 0.0118 µM |  |  | 
Cc1ncc(-c2noc(C)c2COc2ccc(C(=O)NC3CCOCC3)cn2)cc1F [Example 143, 6-((3-(5-fluoro-6-methyl-3-pyridyl)-5-methyl-isoxazol-4-yl)methoxy)-N-tetrahydropyran-4-yl-pyridine-3-carboxamide] | 20% | 1.2 | 0.0145 µM |  |  | 
Cc1onc(-c2cccnc2)c1COc1ccc(C(=O)NC2CCOCC2)cn1 [RO-159, reference compound] |  |  |  | −12% | 0.88 | 0.028 µM
Cc1ccc(-c2noc(C)c2COc2ccc(C(=O)NC3(C(F)(F)F)CC3)nn2)cn1 [Example 59, 6-((5-methyl-3-(6-methylpyridin-3-yl)isoxazol-4-yl)methoxy)-N-(1-(trifluoromethyl)cyclopropyl)pyridazine-3-carboxamide] | 93% | 1.93 | 0.0104 µM |  |  | 
